Data: patent US20220220481A1, “LIPID OLIGONUCLEOTIDE ANTISENSE AGAINST ANTIBIOTIC RESISTANCE” (priority 2019, published 2022)

Legend:
[1] = test system: E. coli TcK12 (resistant, blaCTX-M-15 plasmid); experiment: Ceftriaxone MIC with or without ASOs/LASOs, liquid micro-dilution, resistant laboratory strain; type: cell-based, Escherichia coli; details: TcK12, 24 h
From the text: E. coli strains used included the clinical strain Ec3536 collected from a urine sample of the community patient and provided from the MFP Laboratory collection (Arpin et al. (2009) J. Antimicrob. Chemother. 63:1205-1214). Its conjugative plasmid containing the blaCTX-M-15 gene was transferred by conjugation experiment in a laboratory recipient cell of E. coli K12. Consequently, the transconjugant E. coli TcK12 was resistant to ceftriaxone (CFX) (Arpin et al. (2009) J. Antimicrob. Chemother. 63:1205-1214).
(§1) Determination of minimum inhibitor concentration (MICs) of free CFX with or without ASOs/LASOs was performed on different strains of E. coli, i.e. the CFX sensitive strain K12, and the two resistant strains TcK12 and Ec3536.
(§2) MICs of free CFX with ASOs/LASOs were determined in accordance with the standard method of liquid micro-dilution.
Each bacterial strain that had been frozen at −80° C. was isolated on Mueller-Hinton (MH) agar during 16 h at 37° C. A bacterial suspension in solution of 0.85% NaCl was prepared in order to obtain a turbidity equivalent to standard 0.5 of McFarland range and then diluted 1/100 in MH that correspond to a bacterial inoculum of ca. 10^6 CFU/mL. […]
(§3) Preliminary data allowed to optimize the analysis of microplates using turbidimeter (Apollo LB 911 (Berthold)) at the wavelength of 620 nm, read in triplicate at 0 h, and 24 h. […]

[2] = test system: E. coli K12 (CFX sensitive strain); experiment: Ceftriaxone MIC with or without ASOs/LASOs, liquid micro-dilution, sensitive strain; type: cell-based, Escherichia coli; details: K12, 24 h, SD 0, n=3
Method: as §1, §2
Each bacterial strain that had been frozen at −80° C. was isolated on Mueller-Hinton (MH) agar during 16 h at 37° C. A bacterial suspension in solution of 0.85% NaCl was prepared in order to obtain a turbidity equivalent to standard 0.5 of McFarland range and then diluted 1/100 in MH that correspond to a bacterial inoculum of ca. 10^6 CFU/mL. The bacterial suspension was afterwards mixed with ASOs, LASOs at 2-fold desired concentration in MH. Then 50 μL of bacterial suspension mixed with 50 μl MH, containing oligonucleotides or CFX, was dispensed into the microplate wells immediately. The final volume per well was 100 μL. The concentration of oligonucleotides in well was fixed at 5 μM except for dose-effect tests. The concentration range of LASOs from 0.05 μM to 50 μM was tested. The range of CFX concentration was adjusted to surround the MIC of each bacterial strain. […]
as §3

CO/N=C(\C(=O)N[C@@H]1C(=O)N2C(C(=O)O)=C(CSc3nc(=O)c(=O)[nH]n3C)CS[C@H]12)c1csc(N)n1 [CFX, ceftriaxone]
CFX MIC without oligonucleotide (means of MICs) [1]: 1365 mg/L
CFX MIC in absence of antisense sequences [2]: 0.06 mg/L
